Test results from the supplement of paper PMC10331698.
± gives the standard deviation of the averaged measurements.

Assays:
Assay in all cases: level (log10 ratio to DMSO vehicle control); higher = higher biomarker level / cell amount than vehicle control
Conditions in all cases: in DMSO
[1] = compound: O=S(=O)(F)C(F)(F)C(F)(F)C(F)(F)C(F)(F)C(F)(F)C(F)(F)C(F)(F)C(F)(F)F [Perfluorooctanesulfonyl fluoride]
Method: (§1)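 BioMAP Diversity Plus panel of 12 human primary cell co-culture systems (3C, 4H, LPS, SAg, BT, BF4T, BE3C, CASM3C, HDF3CGF, KF3CT, MyoF, Mphg). Compounds were added 1 h before stimulation and left for 24 h (MyoF 48 h; BT 72 h for soluble read-outs or 6 d for IgG). Biomarkers were read by ELISA, cytotoxicity by SRB, PBMC viability and proliferation by Alamar Blue. Each well value was divided by the mean of 8 DMSO control wells on the same plate and log10 transformed; duplicate blinded samples were tested at 4 concentrations.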

[2] = compound: FC(F)(F)C(F)(F)C(F)(F)C(F)(F)C(F)(F)C(F)(F)CC1CO1 [3-(Perfluorohexyl)-1,2-epoxypropane]
Method: as §1

[3] = compound: O=C(O)C=CC(F)(C(F)(F)F)C(F)(F)F [3-(Perfluoroisopropyl)-2-propenoic acid]
Method: as §1

[4] = compound: NS(=O)(=O)C(F)(F)C(F)(F)C(F)(F)C(F)(F)C(F)(F)C(F)(F)F [Perfluorohexanesulfonamide]
Method: as §1

[5] = compound: O=C(O)C(F)(F)C(F)(F)C(F)(F)C(F)(F)C(F)(F)C(F)(F)C(F)(F)C(F)(F)C(F)(F)C(F)F [11-H-Perfluoroundecanoic acid]
Method: as §1

[6] = compound: C=C(C)C(=O)OCCC(F)(F)C(F)(F)C(F)(F)C(F)(F)C(F)(F)C(F)(F)F [6:2 Fluorotelomer methacrylate]
Method: as §1

Nonafluoropentanamide = compound: NC(=O)C(F)(F)C(F)(F)C(F)(F)C(F)(F)F [Nonafluoropentanamide]
Method: as §1

In the case of MyoF:alpha-SM Actin, the “level (log10)” value ([1]; 6700 nM) is reported as -0.0005 ± 0.015, the “level (log10)” value ([1]; 20000 nM) is reported as 0.004 ± 0.018 and the “level (log10)” value ([1]; 60000 nM) is reported as 0.0055 ± 0.021. For the same test system, the “level (log10)” value ([2]; 6700 nM) was 0.0205 ± 0.015, the “level (log10)” value ([2]; 20000 nM) was 0.0035 ± 0.0064 and the “level (log10)” value ([2]; 60000 nM) was 0.0185 ± 0.0035. For the same test system, the “level (log10)” value ([3]; 6700 nM) was 0.0065 ± 0.021, the “level (log10)” value ([3]; 20000 nM) was 0 ± 0.054 and the “level (log10)” value ([3]; 60000 nM) was 0.0245 ± 0.011. For the same test system, the “level (log10)” value ([4]; 6700 nM) was -0.003 ± 0.035, the “level (log10)” value ([4]; 20000 nM) was 0.01 ± 0.033 and the “level (log10)” value ([4]; 60000 nM) was 0.004 ± 0.0057. The “level (log10)” value ([5]; 6700 nM) was -0.044 ± 0.033, the “level (log10)” value ([5]; 20000 nM) was -0.11 ± 0.033 and the “level (log10)” value ([6]; 6700 nM) was 0.003 ± 0.011. For the same test system, the “level (log10)” value ([6]; 20000 nM) was -0.02 ± 0.038, the “level (log10)” value ([6]; 60000 nM) was -0.0015 ± 0.018 and the “level (log10)” value (Nonafluoropentanamide; 6700 nM) was -0.023 ± 0.027. The “level (log10)” value (Nonafluoropentanamide; 20000 nM) was 0.0035 ± 0.04 and the “level (log10)” value (Nonafluoropentanamide; 60000 nM) was -0.0055 ± 0.063.

For MyoF:bFGF, the “level (log10)” value ([1]; 6700 nM) was 0 ± 0.0014, the “level (log10)” value ([1]; 20000 nM) was -0.0085 ± 0.00071 and the “level (log10)” value ([1]; 60000 nM) was 0.0095 ± 0.018. For the same test system, the “level (log10)” value ([2]; 6700 nM) was 0.02 ± 0.02, the “level (log10)” value ([2]; 20000 nM) was 0.02 ± 0.018 and the “level (log10)” value ([2]; 60000 nM) was 0.014 ± 0.0057. The “level (log10)” value ([3]; 6700 nM) was 0 ± 0.0028, the “level (log10)” value ([3]; 20000 nM) was 0.006 ± 0.027 and the “level (log10)” value ([3]; 60000 nM) was 0.006 ± 0.017. For the same test system, the “level (log10)” value ([4]; 6700 nM) was -0.0005 ± 0.00071, the “level (log10)” value ([4]; 20000 nM) was -0.001 ± 0.0042 and the “level (log10)” value ([4]; 60000 nM) was -0.004 ± 0.023. The “level (log10)” value ([5]; 6700 nM) was 0.006 ± 0.0099, the “level (log10)” value ([5]; 20000 nM) was 0.005 and the “level (log10)” value ([6]; 6700 nM) was -0.0025 ± 0.0064. The “level (log10)” value ([6]; 20000 nM) was -0.0115 ± 0.018, the “level (log10)” value ([6]; 60000 nM) was -0.0085 ± 0.011 and the “level (log10)” value (Nonafluoropentanamide; 6700 nM) was 0.0185 ± 0.023. For the same test system, the “level (log10)” value (Nonafluoropentanamide; 20000 nM) was -0.003 ± 0.0099 and the “level (log10)” value (Nonafluoropentanamide; 60000 nM) was -0.007 ± 0.0057.

lMphg:CCL2/MCP-1 was tested, and the “level (log10)” value ([1]; 6700 nM) was -0.004 ± 0.023, the “level (log10)” value ([1]; 20000 nM) was -0.0245 ± 0.023 and the “level (log10)” value ([1]; 60000 nM) was -0.0165 ± 0.0021. For the same test system, the “level (log10)” value ([2]; 6700 nM) was -0.009 ± 0.031, the “level (log10)” value ([2]; 20000 nM) was -0.0255 ± 0.026 and the “level (log10)” value ([2]; 60000 nM) was 0.0025 ± 0.044. The “level (log10)” value ([3]; 6700 nM) was -0.023 ± 0.014, the “level (log10)” value ([3]; 20000 nM) was -0.0275 ± 0.011 and the “level (log10)” value ([3]; 60000 nM) was 0.006 ± 0.03. The “level (log10)” value ([4]; 6700 nM) was -0.018 ± 0.054, the “level (log10)” value ([4]; 20000 nM) was -0.053 ± 0.017 and the “level (log10)” value ([4]; 60000 nM) was -0.123 ± 0.054. The “level (log10)” value ([5]; 6700 nM) was -0.0145 ± 0.025, the “level (log10)” value ([5]; 20000 nM) was 0.0085 ± 0.028 and the “level (log10)” value ([6]; 6700 nM) was -0.005 ± 0.0085. The “level (log10)” value ([6]; 20000 nM) was -0.009 ± 0.0014, the “level (log10)” value ([6]; 60000 nM) was 0.004 ± 0.0071 and the “level (log10)” value (Nonafluoropentanamide; 6700 nM) was 0.0005 ± 0.0021. For the same test system, the “level (log10)” value (Nonafluoropentanamide; 20000 nM) was 0.0025 ± 0.049 and the “level (log10)” value (Nonafluoropentanamide; 60000 nM) was 0.0225 ± 0.037.

In the case of lMphg:CCL3/MIP-1alpha, the “level (log10)” value ([1]; 6700 nM) is reported as -0.0035 ± 0.053, the “level (log10)” value ([1]; 20000 nM) is reported as -0.004 ± 0.021 and the “level (log10)” value ([1]; 60000 nM) is reported as -0.001 ± 0.017. The “level (log10)” value ([2]; 6700 nM) was -0.0345 ± 0.035, the “level (log10)” value ([2]; 20000 nM) was -0.029 ± 0.034 and the “level (log10)” value ([2]; 60000 nM) was -0.009 ± 0.021. For the same test system, the “level (log10)” value ([3]; 6700 nM) was -0.031 ± 0.018, the “level (log10)” value ([3]; 20000 nM) was -0.0285 ± 0.016 and the “level (log10)” value ([3]; 60000 nM) was -0.0125 ± 0.016. For the same test system, the “level (log10)” value ([4]; 6700 nM) was -0.0025 ± 0.00071, the “level (log10)” value ([4]; 20000 nM) was -0.034 ± 0.044 and the “level (log10)” value ([4]; 60000 nM) was -0.0145 ± 0.0092. For the same test system, the “level (log10)” value ([5]; 6700 nM) was -0.023 ± 0.023, the “level (log10)” value ([5]; 20000 nM) was -0.027 ± 0.0057 and the “level (log10)” value ([6]; 6700 nM) was 0.0005 ± 0.066. The “level (log10)” value ([6]; 20000 nM) was -0.0185 ± 0.061, the “level (log10)” value ([6]; 60000 nM) was 0.003 ± 0.04 and the “level (log10)” value (Nonafluoropentanamide; 6700 nM) was 0.0025 ± 0.057. The “level (log10)” value (Nonafluoropentanamide; 20000 nM) was -0.0015 ± 0.06 and the “level (log10)” value (Nonafluoropentanamide; 60000 nM) was 0 ± 0.045.

In the case of lMphg:CD40, the “level (log10)” value ([1]; 6700 nM) is reported as -0.023 ± 0.051, the “level (log10)” value ([1]; 20000 nM) is reported as -0.0205 ± 0.049 and the “level (log10)” value ([1]; 60000 nM) is reported as -0.0575 ± 0.042. The “level (log10)” value ([2]; 6700 nM) was -0.029 ± 0.0071, the “level (log10)” value ([2]; 20000 nM) was -0.0195 ± 0.005 and the “level (log10)” value ([2]; 60000 nM) was -0.005 ± 0.0028. For the same test system, the “level (log10)” value ([3]; 6700 nM) was -0.0395 ± 0.053, the “level (log10)” value ([3]; 20000 nM) was -0.01 ± 0.025 and the “level (log10)” value ([3]; 60000 nM) was -0.0045 ± 0.019. For the same test system, the “level (log10)” value ([4]; 6700 nM) was -0.02 ± 0.021, the “level (log10)” value ([4]; 20000 nM) was -0.043 ± 0.031 and the “level (log10)” value ([4]; 60000 nM) was -0.146 ± 0.021. The “level (log10)” value ([5]; 6700 nM) was -0.0365 ± 0.005, the “level (log10)” value ([5]; 20000 nM) was -0.04 ± 0.021 and the “level (log10)” value ([6]; 6700 nM) was -0.0125 ± 0.016. The “level (log10)” value ([6]; 20000 nM) was 0.0065 ± 0.023, the “level (log10)” value ([6]; 60000 nM) was 0.0235 ± 0.005 and the “level (log10)” value (Nonafluoropentanamide; 6700 nM) was 0.0255 ± 0.03. For the same test system, the “level (log10)” value (Nonafluoropentanamide; 20000 nM) was 0.0255 ± 0.029 and the “level (log10)” value (Nonafluoropentanamide; 60000 nM) was -0.0095 ± 0.012.

With lMphg:CD62E/E-Selectin the “level (log10)” value ([1]; 6700 nM) was -0.0175 ± 0.013, the “level (log10)” value ([1]; 20000 nM) was -0.0205 ± 0.0035 and the “level (log10)” value ([1]; 60000 nM) was -0.028 ± 0.014. The “level (log10)” value ([2]; 6700 nM) was -0.0155 ± 0.00071, the “level (log10)” value ([2]; 20000 nM) was 0.0055 ± 0.016 and the “level (log10)” value ([2]; 60000 nM) was -0.0045 ± 0.061. The “level (log10)” value ([3]; 6700 nM) was -0.0045 ± 0.012, the “level (log10)” value ([3]; 20000 nM) was -0.002 ± 0.0099 and the “level (log10)” value ([3]; 60000 nM) was 0.0205 ± 0.0035. The “level (log10)” value ([4]; 6700 nM) was -0.02 ± 0.031, the “level (log10)” value ([4]; 20000 nM) was -0.061 ± 0.0014 and the “level (log10)” value ([4]; 60000 nM) was -0.191 ± 0.013. The “level (log10)” value ([5]; 6700 nM) was -0.025 ± 0.023, the “level (log10)” value ([5]; 20000 nM) was -0.028 ± 0.034 and the “level (log10)” value ([6]; 6700 nM) was -0.0005 ± 0.015. The “level (log10)” value ([6]; 20000 nM) was -0.003 ± 0.048, the “level (log10)” value ([6]; 60000 nM) was -0.0135 ± 0.011 and the “level (log10)” value (Nonafluoropentanamide; 6700 nM) was -0.0115 ± 0.021. The “level (log10)” value (Nonafluoropentanamide; 20000 nM) was -0.009 ± 0.03 and the “level (log10)” value (Nonafluoropentanamide; 60000 nM) was -0.011 ± 0.0028.
